Reference: PMC10578352, “Identification of a Protein Arginine Methyltransferase 7 (PRMT7)/Protein Arginine Methyltransferase 9 (PRMT9) Inhibitor” (Journal of Medicinal Chemistry, 2023)

How the values were obtained:
human recombinant PRMT9 = biological target: T1, human recombinant PRMT9 (Homo sapiens, UniProt Q6P2P2); assay: AlphaLISA PRMT9 activity assay (modified BPS kit, biotinylated SF3B2 peptide); format: biochemical; details: PRMT9 0.105 μM, biotinylated SF3B2 (500–519) peptide 100 nM, SAM 25 μM
T1 construct: human recombinant PRMT9 (2–845; N-terminal FLAG-tag, C-terminal His6-tag); FLAG (N); His6 (C); purchased BPS BioScience 79124
T1 sequence (Q6P2P2 2-845): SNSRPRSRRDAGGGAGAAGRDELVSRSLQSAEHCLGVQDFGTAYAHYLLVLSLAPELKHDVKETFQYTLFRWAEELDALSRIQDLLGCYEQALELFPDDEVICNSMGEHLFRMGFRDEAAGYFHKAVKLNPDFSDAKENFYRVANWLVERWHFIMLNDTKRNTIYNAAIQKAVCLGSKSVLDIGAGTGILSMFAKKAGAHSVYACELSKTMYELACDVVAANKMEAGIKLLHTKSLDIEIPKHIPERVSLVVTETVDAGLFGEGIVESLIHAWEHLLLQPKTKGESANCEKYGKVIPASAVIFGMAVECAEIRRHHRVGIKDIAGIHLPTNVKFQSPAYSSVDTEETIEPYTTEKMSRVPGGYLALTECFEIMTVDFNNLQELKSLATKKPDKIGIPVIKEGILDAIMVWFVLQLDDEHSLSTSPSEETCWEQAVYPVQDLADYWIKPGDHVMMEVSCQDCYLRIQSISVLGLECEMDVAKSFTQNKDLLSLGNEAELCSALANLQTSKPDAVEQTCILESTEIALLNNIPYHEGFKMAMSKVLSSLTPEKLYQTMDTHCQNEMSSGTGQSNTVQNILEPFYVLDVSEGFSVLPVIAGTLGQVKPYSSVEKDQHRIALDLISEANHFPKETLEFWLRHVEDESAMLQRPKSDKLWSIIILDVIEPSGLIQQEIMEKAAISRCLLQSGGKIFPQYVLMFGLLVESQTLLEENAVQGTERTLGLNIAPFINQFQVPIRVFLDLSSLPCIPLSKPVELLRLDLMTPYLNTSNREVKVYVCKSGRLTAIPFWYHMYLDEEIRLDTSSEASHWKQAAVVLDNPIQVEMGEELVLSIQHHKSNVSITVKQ
Method: Accordingly, all the enzymatic inhibition data were obtained by performing the assays in these optimized conditions.
The reaction was incubated for 60 min. Afterward, in each well, 5 μL of a 1:100 dilution of Primary antibody 28 (BPS BioScience, #52140Z3) in Detection buffer (BPS BioScience) and 5 μL of anti-Rabbit acceptor beads (PerkinElmer, #AL104C) were added to obtain a final concentration of 20 μg/mL.
For each incubation step, the OptiPlate was sealed with a protective foil to prevent evaporation and contamination. Donor and Acceptor beads were added to the mixture in subdued light.
The 100% activity (positive control) was reached using vehicle (DMSO), while 0% activity (negative control) was obtained without the protein. Data were analyzed by using Excel and Prism software. Values obtained for each compound are mean ± SD determined for three separate experiments.

CePRMT7 = biological target: T2, CePRMT7 (Caenorhabditis elegans, UniProt Q9XW42); assay: Radioisotope-based assay (SDS-PAGE, fluorography, densitometry), CePRMT7; format: biochemical; details: substrate HsH2B, 15 °C, read-out: % CePRMT7 residual activity
T2 construct: made in house; host or cells: E. coli
Method: Based on these outcomes, we resolved to explore the effect on the capability to inhibit PRMT9 enzymatic activity of further reduction of the distance between the pharmacophoric moieties. […] After the experiment was repeated with 100, 250, and 500 μM concentrations of each inhibitor, half inhibition was observed only at a concentration of roughly 250 μM (Figure 4d).
[…]. The experiments were performed as reported in the Experimental procedures section. GST-HsPRMT9 (a) and GST-HsPRMT7 (b) were incubated with human GST-SF3B2 (401–550) peptide or recombinant HsH2B, respectively (1 μg of enzyme, 5 μg of substrate), 0.14 μM [^3H]SAM, and the indicated concentrations of tested compounds at the corresponding optimal reaction temperature (37 °C for HsPRMT9, 15 °C for HsPRMT7). C. elegans GST-tagged enzymes PRMT9 (c) and PRMT7 (d) were incubated with GST-CeSFTB-2 (99–248) fragment or recombinant HsH2B, respectively (1 μg of enzyme, 5 μg of substrate), 0.14 μM [^3H]SAM, and the indicated concentrations of tested compounds at the corresponding optimal reaction temperature (25 °C for CePRMT9, 15 °C for CePRMT7). After SDS-PAGE, the gels were treated as previously described[48] and densitometry analysis was done using ImageJ software, and data was plotted as normalized activity to the no inhibitor controls.
Human PRMT9, C. elegans PRMT9, human PRMT7, and C. elegans PRMT7 plasmids were sequenced, expressed in E. coli as GST-fusion proteins, and purified as previously described.[48] Substrates were also sequenced and purified as described [human GST-SF3B2 (401–550);[13]C. elegans SFTB-2;[48] human histone H2B (New England Biolabs, M2505S)]. Xenopus laevis histone H2B was expressed in E. coli and purified similarly to what was previously reported by Luger et al.[72]
Reactions consisting of approximately 1 μg of enzyme (human or C. elegans GST-tagged enzymes PRMT9 and PRMT7), reacted with approximately 5 μg of substrate [for human PRMT9, human GST-SF3B2 401–550 fragment; C. elegans PRMT9 with C. elegans GST-SFTB-2 (99–248) fragment, or recombinant human histone H2B from New England Biolabs (M2505S)], were incubated for the indicated time in reaction buffer {50 mM potassium HEPES buffer, 10 mM NaCl, 1 mM dithiothreitol (DTT), pH 8.0 with 0.7 μM S-adenosyl-L-[methyl-^3H]methionine (^3H-AdoMet, PerkinElmer Life Sciences, 82.7 Ci/mmol, 0.55 mCi/mL in 10 mM H2SO4/EtOH [9:1 (v/v)])} in a final reaction volume of 60 μL. Each reaction was incubated at the corresponding optimal reaction temperature (37 °C for human PRMT9, 25 °C for C. elegans PRMT9, and 15 °C for C. elegans and human PRMT7 enzymes. MTA was dissolved in water, and a wavelength scan was taken to determine the final concentration using the extinction coefficient. The final concentrations used are indicated in the figure legends. […]. EML734, EML736, and EML709 were also dissolved in DMSO, and further dilutions were made in DMSO for the working stocks. For controls, no inhibitor reactions were created by the addition of the respective solvent (water for MTA and DMSO for EPZ015666 and EML inhibitors).
After the reaction incubations with the various concentrations of inhibitors, the reactions were quenched by adding 0.2 volume of 5× SDS sample loading buffer, and subsequently, the reactions were run on a 12.6% polyacrylamide Tris gel. To collect the radioactive signal, the gels were then treated in the same way as previously described.[48]
After various exposures were collected to ensure linear detection, densitometry analysis was done using ImageJ software, and data were plotted as normalized activity to the no inhibitor controls.

T2 sequence (Q9XW42 whole entry): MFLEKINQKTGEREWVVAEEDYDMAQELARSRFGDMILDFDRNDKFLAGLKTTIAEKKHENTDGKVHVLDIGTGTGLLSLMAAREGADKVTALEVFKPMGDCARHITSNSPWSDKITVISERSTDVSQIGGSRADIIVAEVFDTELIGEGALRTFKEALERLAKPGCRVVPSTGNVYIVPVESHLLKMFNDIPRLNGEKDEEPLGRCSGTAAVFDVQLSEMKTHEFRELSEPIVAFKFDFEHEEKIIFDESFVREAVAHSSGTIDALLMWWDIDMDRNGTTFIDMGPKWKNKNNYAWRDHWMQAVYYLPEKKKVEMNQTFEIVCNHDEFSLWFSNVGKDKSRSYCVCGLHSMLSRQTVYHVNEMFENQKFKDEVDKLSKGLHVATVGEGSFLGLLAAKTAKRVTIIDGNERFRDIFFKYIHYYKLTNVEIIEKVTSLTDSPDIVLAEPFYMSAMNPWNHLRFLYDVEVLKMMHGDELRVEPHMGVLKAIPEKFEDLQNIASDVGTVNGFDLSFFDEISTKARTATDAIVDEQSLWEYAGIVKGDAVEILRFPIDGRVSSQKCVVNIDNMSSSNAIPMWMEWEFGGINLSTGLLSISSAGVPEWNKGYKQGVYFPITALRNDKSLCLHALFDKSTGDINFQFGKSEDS

| IC50 (human recombinant PRMT9) [µM] | remaining activity at 100 µM (CePRMT7) [%] | remaining activity at 250 µM (CePRMT7) [%] | remaining activity at 500 µM (CePRMT7) [%] | SMILES |
| --- | --- | --- | --- | --- |
| 0.89 | 19.6 | 12.5 | 0.92 | COC(=O)c1cc(O)c2cc(NC(=O)NCCCNC(=N)NC[C@H]3O[C@@H](n4cnc5c(N)ncnc54)[C@H](O)[C@@H]3O)ccc2c1 [1a] |
| 5.8 | 26.1 | 6.92 | 2.32 | COC(=O)c1cc(O)c2cc(NC(=O)NCCCCCNC(=N)NC[C@H]3O[C@@H](n4cnc5c(N)ncnc54)[C@H](O)[C@@H]3O)ccc2c1 [1c] |
| 1.32 | 34.8 | 8.62 | 5.19 | COC(=O)c1cc(O)c2cc(NC(=O)NCCCCNC(=N)NC[C@H]3O[C@@H](n4cnc5c(N)ncnc54)[C@H](O)[C@@H]3O)ccc2c1 [1b] |
| 0.2 | – | – | – | COC(=O)c1cc(O)c2cc(NC(=O)NCCCNC(=N)NC[C@H]3O[C@@H](n4cnc5c(N)ncnc54)[C@H](O)[C@@H]3O)cc(C(F)(F)F)c2c1 [1j, Methyl 6-(3-(3-(3-(((2R,3S,4R,5R)-5-(6-Amino-9H-purin-9-yl)-3,4-dihydroxytetrahydrofuran-2-yl)methyl)guanidino)propyl)ureido)-4-hydroxy-8-(trifluoromethyl)-2-naphthoate] |
